Laboratory results taken from ChEMBL document CHEMBL1129879, “Enzymatic synthesis of peptidyl amino alcohols and peptidyl amino aldehydes-serine proteinase inhibitors” (Bioorg Med Chem Lett, 1997).
Where a SMILES comes first, the peptide text is derived from it. The star is where a group is joined. Cbz = O=C(OCc1ccccc1)*

How the values were obtained:
[1] = The compound was tested for the inhibition of subtilisin 72, activity expressed as Ki; design: species or system Bacillus subtilis
[2] = The compound was tested for the inhibition of subtilisin 72, activity expressed as IC50; design: species or system Bacillus subtilis

Ki [1] | IC50 [2] | SMILES
1000 µM |  | C[C@H](NC(=O)OCc1ccccc1)C(=O)N[C@@H](C)C(=O)N[C@H](CO)Cc1ccccc1 (HELM PEPTIDE1{[O=C(OCc1ccccc1)[*:2]].A.A.[OC[C@H](Cc1ccccc1)N[*:1]]}$$$$V2.0)
0.18 µM | 0.9 µM | C[C@H](NC(=O)OCc1ccccc1)C(=O)N[C@@H](C)C(=O)N[C@H](C=O)Cc1ccccc1 (Cbz-Ala-Ala-Phe-aldehyde)
